{
  "source": "ChEMBL document CHEMBL4813910",
  "about": "“Curse or Cure? A Perspective on the Developability of Aldehydes as Active Pharmaceutical Ingredients” (J Med Chem, 2020)",
  "key": {"[1]": {"target": "Serine/threonine-protein kinase/endoribonuclease IRE1 (Mus musculus, UniProt Q9EQY0)", "sequence (Q9EQY0 whole entry)": "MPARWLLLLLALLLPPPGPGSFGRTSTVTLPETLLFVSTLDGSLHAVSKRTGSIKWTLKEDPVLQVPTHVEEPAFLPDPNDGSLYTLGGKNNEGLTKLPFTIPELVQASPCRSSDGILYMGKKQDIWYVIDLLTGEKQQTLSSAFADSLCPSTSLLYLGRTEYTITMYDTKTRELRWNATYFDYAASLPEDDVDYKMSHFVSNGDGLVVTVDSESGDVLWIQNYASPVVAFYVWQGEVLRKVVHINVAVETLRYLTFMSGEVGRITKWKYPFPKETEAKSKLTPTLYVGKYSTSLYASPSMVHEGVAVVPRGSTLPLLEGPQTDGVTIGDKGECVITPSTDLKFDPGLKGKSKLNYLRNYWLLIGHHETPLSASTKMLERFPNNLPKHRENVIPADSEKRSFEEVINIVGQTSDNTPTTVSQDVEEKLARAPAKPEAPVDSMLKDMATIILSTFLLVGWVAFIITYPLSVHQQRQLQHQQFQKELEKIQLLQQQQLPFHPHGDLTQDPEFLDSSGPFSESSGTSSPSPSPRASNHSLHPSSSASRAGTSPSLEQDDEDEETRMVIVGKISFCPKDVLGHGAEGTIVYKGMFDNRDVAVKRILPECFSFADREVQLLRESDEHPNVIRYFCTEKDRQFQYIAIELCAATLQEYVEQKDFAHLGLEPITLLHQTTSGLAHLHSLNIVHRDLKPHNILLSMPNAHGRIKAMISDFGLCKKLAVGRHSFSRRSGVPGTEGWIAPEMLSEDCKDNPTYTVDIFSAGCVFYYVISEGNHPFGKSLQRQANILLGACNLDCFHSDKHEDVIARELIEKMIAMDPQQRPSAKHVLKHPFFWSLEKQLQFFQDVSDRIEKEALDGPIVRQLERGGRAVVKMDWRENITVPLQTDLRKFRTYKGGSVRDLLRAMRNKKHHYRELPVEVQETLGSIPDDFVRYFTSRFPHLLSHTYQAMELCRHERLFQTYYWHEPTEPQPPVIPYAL", "assay": "Inhibition of mouse IRE1 assessed as reduction in XBP1 splicing using 5'-Alexa Fluor 647-CAUGUCCGCAGCGCAUG-BHQ1-3' as substrate preincubated for 30 mins followed by substrate addition by FRET assay"}, "[2]": {"assay": "Drug metabolism in human assessed as pyridoxal-5-phosphate Tmax at 4 mg, po", "assay_type": "ADME", "details": "in vivo"}, "[3]": {"assay": "Drug metabolism in human assessed as pyridoxal-5-phosphate Cmax at 4 mg, po", "assay_type": "ADME", "design": "route oral, dose 4 mg", "details": "in vivo"}, "[4]": {"assay": "Cmax in human at 4 mg, po", "assay_type": "ADME", "design": "route oral, dose 4 mg", "details": "in vivo"}, "[5]": {"assay": "Tmax in human at 4 mg, po", "assay_type": "ADME", "details": "in vivo"}, "[6]": {"assay": "Drug excretion in human urine assessed as time of maximum urinary excretion of pyridoxic-acid at 4 mg, po", "assay_type": "ADME, tissue-based", "details": "in vivo"}, "[7]": {"assay": "Drug excretion in human urine assessed as maximum urinary excretion of pyridoxic-acid at 4 mg, po", "assay_type": "ADME", "details": "in vivo, 24 h"}, "[8]": {"assay": "Drug excretion in human urine at 4 mg, po measured within 24 hrs", "assay_type": "ADME, organism-based", "details": "in vivo"}, "[9]": {"assay": "Drug excretion in human urine measured for 24 hrs", "assay_type": "ADME, tissue-based", "details": "read-out: Drug excretion"}, "[10]": {"assay": "Tmax in human at 0.03 mg/kg, po", "assay_type": "ADME, organism-based", "details": "in vivo"}, "[11]": {"assay": "Oral bioavailability in human at 0.03 mg/kg", "assay_type": "ADME, organism-based", "details": "in vivo"}, "[12]": {"assay": "Dermal bioavailability in human at 0.46 mg/kg", "assay_type": "ADME, organism-based", "details": "in vivo, topical or ocular"}, "[13]": {"assay": "Drug excretion in human urine at 0.46 mg/kg dosed-dermally measured for 24 hrs", "assay_type": "ADME, organism-based", "details": "topical or ocular, read-out: Drug excretion"}, "[14]": {"assay": "Half life in human at 0.03 mg/kg, po", "assay_type": "ADME, organism-based", "details": "in vivo"}, "[15]": {"assay": "Protein binding in human plasma incubated for 240 mins by equilibrium dialysis", "assay_type": "ADME, cell-free", "details": "read-out: PPB (converted)"}, "[16]": {"assay": "Drug excretion in human urine at 0.7 mg/kg, po measured after 8 to 24 hrs", "assay_type": "ADME, organism-based", "details": "time 8-24 hrs, read-out: Drug excretion"}, "[17]": {"assay": "Bioavailability in human at 10.3 mg", "assay_type": "ADME, organism-based", "details": "in vivo"}, "[18]": {"assay": "Oral bioavailability in human at 0.7 mg/kg", "assay_type": "ADME, organism-based", "details": "in vivo"}, "[19]": {"assay": "Half life in human at 0.7 mg/kg, po", "assay_type": "ADME, organism-based", "details": "in vivo"}, "[20]": {"assay": "Cmax in human at 3.36 mg, po measured for 7 days", "assay_type": "ADME, organism-based", "design": "route oral, time 7 day, dose 3.36 mg", "details": "in vivo"}, "[21]": {"assay": "Drug metabolism in human assessed as pyridoxal-5-phosphate Tmax at 3.36 mg, po", "assay_type": "ADME", "details": "in vivo"}, "[22]": {"assay": "Drug metabolism in human assessed as pyridoxal-5-phosphate Cmax at 3.36 mg, po", "assay_type": "ADME", "design": "route oral, dose 3.36 mg", "details": "in vivo"}, "[23]": {"assay": "Drug excretion in human assessed as time of maximum urinary excretion of pyridoxic-acid at 3.36 mg, po", "assay_type": "ADME", "details": "in vivo"}, "[24]": {"assay": "Drug excretion in human urine at 3.36 mg, po measured within 24 hrs", "assay_type": "ADME, organism-based", "details": "in vivo"}, "[25]": {"assay": "Tmax in human at 3.36 mg, po", "assay_type": "ADME", "details": "in vivo"}, "[26]": {"assay": "Drug excretion in human urine assessed as maximum urinary excretion of pyridoxic-acid at 3.36 mg, po", "assay_type": "ADME, tissue-based", "details": "in vivo"}, "[27]": {"assay": "Half life in human at 20 mg/kg, IM", "assay_type": "ADME, organism-based", "details": "in vivo"}, "[28]": {"assay": "Cmax in human at 20 mg/kg, IM", "assay_type": "ADME, organism-based", "design": "route […], dose 20 mg/kg", "details": "in vivo"}, "[29]": {"assay": "Tmax in human at 20 mg/kg, IM", "assay_type": "ADME, organism-based", "details": "in vivo"}, "[30]": {"assay": "Volume of distribution at steady state in human at 20 mg/kg, IM", "assay_type": "ADME, organism-based", "details": "in vivo"}, "[31]": {"assay": "Bioavailability in human at 20 mpk, IM", "assay_type": "ADME, organism-based", "details": "in vivo, dose 20 mg/kg"}, "[32]": {"assay": "Drug excretion in human at 20 mg/kg, IM measured for 24 hrs", "assay_type": "ADME, organism-based", "details": "in vivo, read-out: Drug excretion"}, "[33]": {"assay": "Protein binding in human plasma at 20 mg/kg, IM", "assay_type": "ADME, organism-based", "details": "read-out: PPB (converted)"}, "[34]": {"assay": "Renal clearance in human at 20 mg/kg, IM", "assay_type": "ADME, organism-based", "details": "in vivo"}, "[35]": {"assay": "Half life in mouse plasma at 5 ug/ml incubated for 1 to 24 hrs by LC/MS/MS method", "assay_type": "ADME, cell-free", "details": "time 1-24 hrs, dose 5 µg/ml"}, "[36]": {"assay": "Half life in human plasma at 5 ug/ml incubated for 1 to 24 hrs by LC/MS/MS method", "assay_type": "ADME, cell-free", "details": "time 1-24 hrs, dose 5 µg/ml"}, "[37]": {"assay": "Half life in dog plasma at 5 ug/ml incubated for 1 to 24 hrs by LC/MS/MS method", "assay_type": "ADME, cell-free, Canis lupus familiaris", "details": "time 1-24 hrs, dose 5 µg/ml"}},
  "data": [
    {"smiles": "COc1cc2c(C)c(CC(=O)N3CCOCC3)c(=O)oc2c(C=O)c1O", "values": [
      {"measurement": "IC50", "setting": "[1]", "result": "< 100", "unit": "nM"}
    ]},
    {"smiles": "Cc1ncc(CO)c(CO)c1O", "note": "[PYRIDOXINE]", "values": [
      {"measurement": "Tmax", "setting": "[2]", "result": 3, "unit": "h"},
      {"measurement": "Cmax", "setting": "[3]", "result": 30, "unit": "nM"},
      {"measurement": "Cmax", "setting": "[4]", "result": 60, "unit": "nM"},
      {"measurement": "Tmax", "setting": "[5]", "result": 1, "unit": "h"},
      {"measurement": "Time", "setting": "[6]", "result": 3, "unit": "h"},
      {"measurement": "Drug excretion", "setting": "[7]", "result": 0.7, "unit": "µmol/h"},
      {"measurement": "Drug excretion", "setting": "[8]", "result": 1.5, "unit": "µmol"}
    ]},
    {"smiles": "CC(CC=O)CCCC(C)(C)O", "note": "(configuration not stated)", "values": [
      {"measurement": "dose excreted at 24 h", "setting": "[9]", "result": 94, "unit": "%"},
      {"measurement": "Tmax", "setting": "[10]", "result": 2.7, "unit": "h"},
      {"measurement": "bioavailability", "setting": "[11]", "result": 100, "unit": "%"},
      {"measurement": "bioavailability", "setting": "[12]", "result": 5, "unit": "%"},
      {"measurement": "dose excreted at 24 h", "setting": "[13]", "result": 90, "unit": "%"},
      {"measurement": "half-life", "setting": "[14]", "result": 3.28, "unit": "h"}
    ]},
    {"smiles": "CN1CCC(=C2c3ccccc3CCn3c(C(=O)O)cnc32)CC1", "values": [
      {"measurement": "fraction unbound at 4 h", "setting": "[15]", "result": 0.37}
    ]},
    {"smiles": "O=C/C=C/c1ccccc1", "values": [
      {"measurement": "dose excreted", "setting": "[16]", "result": 100, "unit": "%"},
      {"measurement": "bioavailability", "setting": "[17]", "result": 9, "unit": "%"},
      {"measurement": "bioavailability", "setting": "[18]", "result": 100, "unit": "%"},
      {"measurement": "half-life", "setting": "[19]", "result": "< 4", "unit": "h"}
    ]},
    {"smiles": "Cc1ncc(CO)c(C=O)c1O", "note": "[PYRIDOXAL]", "values": [
      {"measurement": "Cmax", "setting": "[20]", "result": 280, "unit": "nM"},
      {"measurement": "Tmax", "setting": "[21]", "result": 1, "unit": "h"},
      {"measurement": "Cmax", "setting": "[22]", "result": 18, "unit": "nM"},
      {"measurement": "Time", "setting": "[23]", "result": 1, "unit": "h"},
      {"measurement": "Drug excretion", "setting": "[24]", "result": 1.2, "unit": "µmol"},
      {"measurement": "Tmax", "setting": "[25]", "result": 0.5, "unit": "h"},
      {"measurement": "Drug excretion", "setting": "[26]", "result": 1.6, "unit": "µmol/h"}
    ]},
    {"smiles": "[H]/N=C(/N)N[C@H]1[C@H](O)[C@@H](O)[C@H](O[C@@H]2O[C@@H](C)[C@](O)(C=O)[C@H]2O[C@@H]2O[C@@H](CO)[C@H](O)[C@@H](O)[C@@H]2NC)[C@@H](N/C(N)=N\\[H])[C@@H]1O", "note": "[STREPTOMYCIN]", "values": [
      {"measurement": "half-life", "setting": "[27]", "result": 5.3, "unit": "h"},
      {"measurement": "Cmax", "setting": "[28]", "result": 43000, "unit": "nM"},
      {"measurement": "Tmax", "setting": "[29]", "result": 0.5, "unit": "h"},
      {"measurement": "Vdss", "setting": "[30]", "result": 1.77, "unit": "L/kg"},
      {"measurement": "bioavailability", "setting": "[31]", "result": 80, "unit": "%"},
      {"measurement": "dose excreted at 24 h", "setting": "[32]", "result": 39, "unit": "%"},
      {"measurement": "fraction unbound", "setting": "[33]", "result": 0.52},
      {"measurement": "CL renal", "setting": "[34]", "result": 30, "unit": "mL/min"}
    ]},
    {"smiles": "Cc1cc2c(C(C)C)c(O)c(O)cc2c(O)c1-c1c(C)cc2c(C(C)C)c(O)c(O)cc2c1O", "note": "[APOGOSSYPOL]", "values": [
      {"measurement": "half-life at 5 ug/ml", "setting": "[35]", "result": "< 1", "unit": "h"},
      {"measurement": "half-life at 5 ug/ml", "setting": "[36]", "result": "< 1", "unit": "h"},
      {"measurement": "half-life at 5 ug/ml", "setting": "[37]", "result": "< 1", "unit": "h"}
    ]}
  ]
}
